Tests used:
[1] = target: T1, Full-length PRMT5 enzyme co-expressed with MEP50 (Homo sapiens (Human), UniProt O14744); test: PRMT5 Biochemical Assay; details: 200 nM histone H4 derived peptide substrate, 1 μM S-Adenosyl methionine, 4 hours at 37° C, Transcreener EPIGEN fluorescence polarisation
Protocol: Compounds of the invention may be tested for in vitro activity in the following assay: A histone H4 derived peptide is used as substrate (amino acid sequence: […]NH2). Full-length PRMT5 enzyme (NCBI Reference sequence NP-006100.2) was co-expressed with Hiss-MEP50 in insect cells and purified via Nickel immobilized metal affinity and gel filtration chromatography (“the enzyme”).
The 6 μL assay reactions are run in Greiner brand black 384-well low volume plates. All reactions contained assay buffer (phosphate buffered saline, 0.01% (v/v) Tween-20, 0.01% (w/v) albumin from chicken egg white, 1 mM dithiothreitol, 200 nM peptide substrate, 1 μM S-Adenosyl methionine, and 15 ng/reaction enzyme, with the enzyme being omitted from negative control reactions. Compounds were added in a volume of 100 nL from dilution series prepared in DMSO, positive and negative control reactions receiving the same volume DMSO without compound. The plates were sealed with adhesive seals and incubated for 4 hours at 37° C. Reaction progress was measured using the Transcreener™ EPIGEN methyltransferase assay (BellBrook Labs, Madison, Wis.) as recommended by the manufacturer. To each reaction 2 μL detection mix were added, containing coupling enzymes, fluorescence polarisation tracer, and AMP antibody. Plates were incubated for 90 min before being read on a PerkinElmer EnVision™ plate reader in fluorescence polarisation mode.

[2] = system: symmetrical dimethylation of arginine (Di-Methyl Histone H4R3) in cell line TE11; test: PRMT5 Biomarker Assay; type: cell-based; details: Homo sapiens, TE-11; TE11 cells, 72 h incubation, EpiQuik Global Di-Methyl Histone H4R3 ELISA, corrected for total protein
Protocol: (§1) Compounds of the invention may be tested for potency to inhibit symmetrical dimethylation of arginine in the following assay:
The cell line TE11 was seeded at a density of 12,000 cells per well in 96 well tissue culture plates in DME medium and 10% foetal bovine serum, and allowed to adhere overnight under standard culture conditions (37° C., 5% CO2). Compound dilutions prepared in DMSO were added to the medium, with negative control wells reserved for treatment with DMSO only and positive controls receiving a potent PRMT5 inhibitor. The concentration of the inhibitor had been previously determined to give maximum inhibition of the methylation. After incubation for 72 h, cells were washed twice in ice-cold PBS, lysed in lysis buffer (20 mM Tris pH 7.4, 135 mM NaCl, 1.5 mM MgCl2, 1 mM EGTA, 10% glycerol and 1% Triton-X100), centrifuged at 15,000×g and the supernatants collected for subsequent analysis. The methylation level was determined using the EpiQuik™ Global Di-Methyl Histone H4R3 Quantification ELISA Kit (Epigentek, Farmingdale, N.Y.) as per the manufacturer's recommendations; in parallel the total protein amount in the lysate was quantified using a Lowry protein assay. The methylation level was corrected for the total protein amount of each sample, normalised to the controls, and the data fitted against a four-parameter logistic model to determine the 50% inhibitory concentration (IC50).

[3] = system: symmetrical dimethylation of arginine (Di-Methyl Histone H4 Arginine 3) in cell line TE11; test: Revised PRMT5 Biomarker Assay; details: Homo sapiens, TE-11; TE11 cells, 72 hours incubation, immunofluorescence, corrected for cell number (Hoechst 33342), plate reader based
Protocol: as §1
The cell line TE11 was seeded at a density of 6,000 cells per well in 96 well optical quality tissue culture plates in DME medium and 10% foetal bovine serum, and allowed to adhere for 5 hours under standard culture conditions (37 degree Celsius, 5% CO2). Compound dilutions prepared in DMSO were added to the medium, with negative control wells reserved for treatment with DMSO only and positive controls receiving a potent PRMT5 inhibitor compound at 1 μM concentration. After incubation for 72 hours, the cells were fixed with 3.7% formaldehyde in PBS for 30 minutes at room temperature, washed with phosphate buffer saline and blocked with Odyssey blocking buffer (LI-COR, Lincoln, Nebr.). Rabbit anti-Di-Methyl Histone H4 Arginine 3 specific antibody (Epigentek) in Odyssey blocking buffer was added and incubated for 14 hours at 4 degree Celsius. After washing, anti-rabbit secondary antibody labelled with Alexa647 dye (LifeTechnologies) and Hoechst 33342 (1 μg/mL, SigmaAldrich) were added for 1 hour incubation. Plates were washed and read on a PerkinElmer Envision 2103 in fluorescence intensity scanning mode (24 scans across the well area). The methylation level information was corrected for the number of cells as expressed by the Hoechst 33342 stain, converted to percent inhibition relative to controls on the same plate and the data fitted against a four-parameter logistic model to determine the 50% inhibitory concentration (IC50 plate-reader based). Alternatively, the plates were imaged on a PerkinElmer Phenix high content imaging platform. Using a Columbus image analysis pipeline, individual nuclei were located by Hoechst 33342 stain and the methylation level was calculated from the Alexa647-related intensity in the same area. The resulting mean intensity per cell was directly converted to percent inhibition as outlined above (IC50, imager based)).

[4] = target: T1, Full-length PRMT5 enzyme co-expressed with MEP50; test: Revised PRMT5 Biochemical Assay; details: 1 μM histone H4 derived peptide substrate, 1 μM S-Adenosyl methionine, 4 hours at 37 degree Celsius, Transcreener EPIGEN fluorescence polarisation
Method in brief: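 Full-length human PRMT5 co-expressed with His-MEP50 in insect cells (15 ng/reaction), 1 μM H4-derived peptide and 1 μM SAM in PBS/0.01% Tween-20/egg albumin/1 mM DTT, 4 h at 37 °C. SAH formation read by Transcreener EPIGEN fluorescence polarisation after 90 min detection. IC50 from four-parameter fit of plate-normalised % inhibition.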

T1 sequence (O14744 whole entry): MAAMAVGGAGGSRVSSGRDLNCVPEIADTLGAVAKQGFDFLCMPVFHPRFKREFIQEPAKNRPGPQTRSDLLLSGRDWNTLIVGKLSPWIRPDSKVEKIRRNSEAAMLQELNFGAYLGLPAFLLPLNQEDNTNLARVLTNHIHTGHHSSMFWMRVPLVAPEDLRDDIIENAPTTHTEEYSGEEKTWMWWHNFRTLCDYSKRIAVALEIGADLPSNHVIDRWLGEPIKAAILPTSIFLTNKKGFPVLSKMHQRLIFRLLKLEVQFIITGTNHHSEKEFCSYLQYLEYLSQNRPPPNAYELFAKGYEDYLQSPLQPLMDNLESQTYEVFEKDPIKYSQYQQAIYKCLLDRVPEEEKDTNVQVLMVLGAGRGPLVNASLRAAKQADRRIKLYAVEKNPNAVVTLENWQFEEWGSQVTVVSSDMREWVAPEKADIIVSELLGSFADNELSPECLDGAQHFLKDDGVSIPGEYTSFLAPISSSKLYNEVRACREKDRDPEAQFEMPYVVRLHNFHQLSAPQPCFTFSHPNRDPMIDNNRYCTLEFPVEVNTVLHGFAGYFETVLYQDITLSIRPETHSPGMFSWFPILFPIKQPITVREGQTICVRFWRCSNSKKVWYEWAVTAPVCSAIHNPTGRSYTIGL
T1 sequence (Q9BQA1 whole entry partner): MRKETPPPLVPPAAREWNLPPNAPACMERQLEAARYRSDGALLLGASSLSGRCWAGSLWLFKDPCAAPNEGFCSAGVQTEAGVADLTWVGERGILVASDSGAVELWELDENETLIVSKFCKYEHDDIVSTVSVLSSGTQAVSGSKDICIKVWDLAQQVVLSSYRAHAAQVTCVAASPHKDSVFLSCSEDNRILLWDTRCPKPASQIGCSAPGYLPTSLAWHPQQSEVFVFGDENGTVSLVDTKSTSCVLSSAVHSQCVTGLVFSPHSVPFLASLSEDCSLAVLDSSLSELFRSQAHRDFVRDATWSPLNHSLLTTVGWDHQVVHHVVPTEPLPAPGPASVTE

Compound	IC50 [1]	IC50 [2]	IC50 [3]	IC50 [4]
O=C(NCC(O)CNC1Cc2ccccc2C1)c1ccc(C(=O)N2CCOCC2)cc1 (stereo not shown) [Compound 2, N-(3-((2,3-Dihydro-1H-inden-2-yl)amino)-2-hydroxypropyl)-4-(morpholine-4-carbonyl)benzamide]	310 nM	69 nM		
Cc1nonc1COc1ccc(C(=O)NC[C@H](O)CNC2Cc3ccccc3C2)cc1 [Compound 8, (R)-N-(3-((2,3-Dihydro-1H-inden-2-yl)amino)-2-hydroxypropyl)-4-((4-methyl-1,2,5-oxadiazol-3-yl)methoxy)benzamide]	263 nM	336 nM		
Cn1cc(Oc2ccc(C(=O)NC[C@H](O)CNC3Cc4ccccc4C3)cc2)cn1 [Compound 13, (R)-N-(3-((2,3-Dihydro-1H-inden-2-yl)amino)-2-hydroxypropyl)-4-((1-methyl-1H-pyrazol-4-yl)oxy)benzamide]	634 nM	348 nM		
O=C(NC[C@@H](O)CNC1Cc2ccccc2C1)c1ccc(Cl)cc1 [Compound 14, (S)-4-Chloro-N-(3-((2,3-dihydro-1H-inden-2-yl)amino)-2-hydroxypropyl)benzamide]	445 nM	210 nM		
O=C(NC[C@@H](O)CNC1Cc2ccccc2C1)c1ccc(C(=O)N2CCOCC2)cc1 [Compound 15, (S)-N-(3-((2,3-Dihydro-1H-inden-2-yl)amino)-2-hydroxypropyl)-4-(morpholine-4-carbonyl)benzamide]	218 nM	30 nM	0.025 µM	
O=C(NC[C@@H](O)CNC1Cc2ccccc2C1)c1ccc(N2CCOCC2)nc1 [Compound 16, (S)-N-(3-((2,3-Dihydro-1H-inden-2-yl)amino)-2-hydroxypropyl)-6-morpholinonicotinamide]	301 nM	259 nM		
Cn1cc(Oc2ccc(C(=O)NC[C@@H](O)CNC3Cc4ccccc4C3)cc2)cn1 [Compound 18, (S)-N-(3-((2,3-dihydro-1H-inden-2-yl)amino)-2-hydroxypropyl)-4-((1-methyl-1H-pyrazol-4-yl)oxy)benzamide]	238 nM	92 nM		
O=C(NCC(O)CNC1Cc2ccccc2C1)c1ccc(C(=O)N2CCCCC2)cc1 (stereo not shown) [Compound 22, N-(3-((2,3-Dihydro-1H-inden-2-yl)amino)-2-hydroxypropyl)-4-(piperidine-1-carbonyl)benzamide]	171 nM	18 nM	0.106 µM	
O=C(NCC(O)CNC1Cc2ccccc2C1)c1ccc(-c2ccccc2)cc1 (stereo not shown) [Compound 24, N-(3-((2,3-Dihydro-1H-inden-2-yl)amino)-2-hydroxypropyl)-[1,1′-biphenyl]-4-carboxamide]	425 nM	363 nM		
O=C(NCC(O)CNC1CCc2ccccc2C1)c1ccc(Cl)cc1 (stereo not shown) [Compound 30, 4-Chloro-N-(2-hydroxy-3-((1,2,3,4-tetrahydronaphthalen-2-yl)amino)propyl)benzamide]	905 nM	1910 nM		
CC(=O)N1CCC(Nc2cc(C(=O)NCC(O)CNC3Cc4ccccc4C3)ccn2)CC1 (stereo not shown) [Compound 35, 2-((1-Acetylpiperidin-4-yl)amino)-N-(3-((2,3-dihydro-1H-inden-2-yl)amino)-2-hydroxypropyl)isonicotinamide]	50 nM	8 nM	0.04 µM	155 nM
C[C@@H]1COCCN1C(=O)c1ccc(C(=O)NC[C@@H](O)CNC2Cc3ccccc3C2)cc1 [Compound 37, N—((S)-3-((2,3-Dihydro-1H-inden-2-yl)amino)-2-hydroxypropyl)-4-((R)-3-methylmorpholine-4-carbonyl)benzamide]	95 nM	19 nM		163 nM
C[C@H]1COCCN1C(=O)c1ccc(C(=O)NC[C@@H](O)CNC2Cc3ccccc3C2)cc1 [Compound 38, N—((S)-3-((2,3-Dihydro-1H-inden-2-yl)amino)-2-hydroxypropyl)-4-((S)-3-methylmorpholine-4-carbonyl)benzamide]	210 nM	11 nM	0.053 µM	310 nM
O=C(NCC(O)CNC1Cc2ccccc2C1)c1ccc(C(=O)N2C3CCC2COC3)cc1 (stereo not shown) [Compound 40, 4-(3-Oxa-8-azabicyclo[3.2.1]octane-8-carbonyl)-N-(3-((2,3-dihydro-1H-inden-2-yl)amino)-2-hydroxypropyl)benzamide]	57 nM	2 nM	0.021 µM	
COc1cc(C(=O)N2CCOCC2)ccc1C(=O)NC[C@@H](O)CNC1Cc2ccccc2C1 [Compound 98, (S)-N-(3-((2,3-dihydro-1H-inden-2-yl)amino)-2-hydroxypropyl)-2-methoxy-4-(morpholine-4-carbonyl)benzamide]		7 nM	0.361 µM	281 nM
CCOc1cc(C(=O)N2CCOC[C@H]2C)ccc1C(=O)NC[C@@H](O)CNC1Cc2ccccc2C1 [Compound 123, N-((S)-3-((2,3-dihydro-1H-inden-2-yl)amino)-2-hydroxypropyl)-2-ethoxy-4-((R)-3-methylmorpholine-4-carbonyl)benzamide]			0.012 µM	40 nM
CCOc1cc(C(=O)N2CCOC[C@@H]2CC)ccc1C(=O)NC[C@@H](O)CNC1Cc2ccccc2C1 [Compound 124, N-((S)-3-((2,3-dihydro-1H-inden-2-yl)amino)-2-hydroxypropyl)-2-ethoxy-4-((S)-3-ethylmorpholine-4-carbonyl)benzamide]			0.013 µM	48 nM
CCOc1cc(C(=O)N2C[C@H]3C[C@@H]2CO3)ccc1C(=O)NC[C@@H](O)CNC1Cc2ccccc2C1 [Compound 127, 4-((1R,4R)-2-oxa-5-azabicyclo[2.2.1]heptane-5-carbonyl)-N-((S)-3-((2,3-dihydro-1H-inden-2-yl)amino)-2-hydroxypropyl)-2-ethoxybenzamide]			0.002 µM	137 nM
O=C(NC[C@@H](O)CNC1Cc2ccccc2C1)c1ccc(C(=O)N2C3CCC2COC3)cc1F [Compound 133, 4-(3-oxa-8-azabicyclo[3.2.1]octane-8-carbonyl)-N((S)-3-((2,3-dihydro-1H-inden-2-yl)amino)-2-hydroxypropyl)-2-fluorobenzamide]			0.009 µM	131 nM
CCOc1cc(C(=O)N2C3CCCC2COC3)ccc1C(=O)NC[C@@H](O)CNC1Cc2ccccc2C1 [Compound 135, 4-(3-Oxa-9-azabicyclo[3.3.1]nonane-9-carbonyl)-N—((S)-3-((2,3-dihydro-1H-inden-2-yl)amino)-2-hydroxypropyl)-2-ethoxybenzamide]			0.0003 µM	15 nM

From patent US10005792B2, “Aminoindane-, aminotetrahydronaphthalene- and aminobenzocyclobutane-derived PRMT5-inhibitors” (CTXT PTY LTD, priority 2014, dated 2018)
